Test systems include HS 578T breast; MOLT-4 leukemia; PC-3 prostate; HCT-116 colon; SK-MEL-2 melanoma; HOP-62 NSCLC; DU-145 prostate; CCRF-CEM leukemia; SNB-75 CNS.
What all share (assay): growth of human tumour cells (NCI), 48 h

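1) Cells in 96-well plates. 2) Compound, 48 h, 5 concentrations. 3) Linear interpolation between surrounding doses. 4) Unreached endpoint = highest concentration. GI50 is the concentration that inhibits growth by half. TGI: total growth inhibition.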 A value given as a limit tells only on which side of the number the result lay.

Consider `CCCCn1c2c(n(CCCC)c1=[Se])-c1c(n(CCCC)c(=[Se])n1CCCC)S[Se][Se]S2`, for which the TGI was 80.5 µM in the experiment on HS 578T breast; over 90.6 µM in the experiment with MOLT-4 leukemia; 34.7 µM in the experiment on PC-3 prostate; over 56.2 µM in the experiment with HCT-116 colon; 45.9 µM in the experiment on SK-MEL-2 melanoma; 49.1 µM in the experiment with HOP-62 NSCLC. The figures for the TGI in the experiment on DU-145 prostate, with CCRF-CEM leukemia and with SNB-75 CNS were 63.4 µM, 55.6 µM and 44.7 µM, respectively.
Turning to `N=c1oc2ccc(Cl)cc2cc1C(=O)NC1CCCCC1`, the TGI in the experiment on HS 578T breast, in the experiment with MOLT-4 leukemia, with PC-3 prostate, in the experiment with HCT-116 colon, in the experiment with SK-MEL-2 melanoma and in the experiment with HOP-62 NSCLC was over 100 µM in each case. The TGI in the experiment with DU-145 prostate, in the experiment on CCRF-CEM leukemia and in the experiment with SNB-75 CNS was over 100 µM in each case.
For `CC(=O)NC1=CC(=O)C=C(Cl)C1=O`, the TGI with HS 578T breast is over 100 µM; in the experiment with MOLT-4 leukemia it was 50.9 µM; with PC-3 prostate, over 100 µM; in the experiment with HCT-116 colon it was over 100 µM; in the experiment with SK-MEL-2 melanoma, over 100 µM; with HOP-62 NSCLC, over 100 µM. For the same compound, the figures for the TGI in the experiment on DU-145 prostate, in the experiment on CCRF-CEM leukemia and in the experiment on SNB-75 CNS were over 100 µM, 57.8 µM and over 100 µM, respectively.
For `NC(=O)N=Nc1c2ccccc2n2[nH]ccc12`, the TGI in the experiment with HS 578T breast, with MOLT-4 leukemia, in the experiment with PC-3 prostate, in the experiment with HCT-116 colon, in the experiment on SK-MEL-2 melanoma and in the experiment with HOP-62 NSCLC was over 100 µM each time. Moreover, the TGI with DU-145 prostate, with CCRF-CEM leukemia and in the experiment on SNB-75 CNS was over 100 µM each time.
As for `O=c1c2cc([N+](=O)[O-])cnc2sn1-c1ccc(Br)cc1`, the TGI with HS 578T breast is over 100 µM; in the experiment with MOLT-4 leukemia it was 90.3 µM; with PC-3 prostate it was over 100 µM; in the experiment with HCT-116 colon it was 59.3 µM; in the experiment on SK-MEL-2 melanoma, 85.5 µM; in the experiment on HOP-62 NSCLC it was over 100 µM. Moreover, the TGI is over 100 µM with DU-145 prostate, 66.6 µM in the experiment on CCRF-CEM leukemia and over 100 µM in the experiment on SNB-75 CNS.
On to `COc1ccc(-c2c(C#N)cnc(N)c2-c2nc3cc(C)c(C)cc3[nH]2)cc1`, for which the GI50 in the experiment on HS 578T breast was 5.87 µM; with MOLT-4 leukemia, over 100 µM; in the experiment with PC-3 prostate it was 8.86 µM; with HCT-116 colon, 4.63 µM; with SK-MEL-2 melanoma, 10.8 µM; in the experiment on HOP-62 NSCLC, 3.65 µM. The figures for the GI50 with DU-145 prostate, with CCRF-CEM leukemia and with SNB-75 CNS were 6.92 µM, 25.6 µM and 2.36 µM, respectively. In addition, the TGI with HS 578T breast was over 100 µM; in the experiment on MOLT-4 leukemia it was over 100 µM; in the experiment with PC-3 prostate it was over 100 µM; in the experiment on HCT-116 colon, over 100 µM; with SK-MEL-2 melanoma, 98 µM; in the experiment on HOP-62 NSCLC it was 14.4 µM. Also, the TGI is 23.8 µM with DU-145 prostate, over 100 µM in the experiment on CCRF-CEM leukemia and 8.19 µM with SNB-75 CNS.
In the case of `O=C(CC(C(=O)c1cccs1)c1ccccc1)c1ccccc1O` (stereo not given), the TGI in the experiment with HS 578T breast was over 22.9 µM; with MOLT-4 leukemia, over 38.4 µM; in the experiment with PC-3 prostate it was over 100 µM; in the experiment with HCT-116 colon, over 100 µM; in the experiment with SK-MEL-2 melanoma it was over 100 µM; in the experiment with HOP-62 NSCLC it was over 48.1 µM. Besides, the TGI in the experiment on DU-145 prostate is over 100 µM; in the experiment with CCRF-CEM leukemia, over 100 µM; with SNB-75 CNS, over 55.7 µM.
For `Cc1cn(C2CC(O)C(Cn3nncc3Cn3ccc(=O)[nH]c3=O)O2)c(=O)[nH]c1=O` (stereo not given), the TGI in the experiment with HS 578T breast, with MOLT-4 leukemia, in the experiment on PC-3 prostate, in the experiment on HCT-116 colon, with SK-MEL-2 melanoma and in the experiment with HOP-62 NSCLC was over 100 µM in each case. The TGI in the experiment on DU-145 prostate, in the experiment with CCRF-CEM leukemia and in the experiment on SNB-75 CNS was over 100 µM each time.
On to `Cc1cccc(/C=C2\CCCCCC2=O)c1`, for which the TGI in the experiment with HS 578T breast, with MOLT-4 leukemia, in the experiment with PC-3 prostate, in the experiment with HCT-116 colon, in the experiment with SK-MEL-2 melanoma and with HOP-62 NSCLC was over 100 µM each time. Moreover, the TGI with DU-145 prostate is over 100 µM; in the experiment with CCRF-CEM leukemia, 82.8 µM; in the experiment on SNB-75 CNS, over 100 µM.
`Nc1c(O)c(C(=O)O)cc2ccccc12`: the TGI in the experiment with HS 578T breast was over 100 µM; in the experiment on MOLT-4 leukemia, 83.8 µM; in the experiment on PC-3 prostate, over 100 µM; in the experiment with HCT-116 colon it was 32.2 µM; in the experiment on SK-MEL-2 melanoma, 35 µM; with HOP-62 NSCLC, over 100 µM. Further, the TGI with DU-145 prostate was 35.9 µM; with CCRF-CEM leukemia, over 100 µM; in the experiment on SNB-75 CNS it was 53.5 µM.
Take `COc1cc2c3c4c1OCc1c5c(cc(c1-4)CC3[N+](C)(C)CC2)OCO5` (stereo not given): the TGI in the experiment with HS 578T breast is 31.7 µM; in the experiment with MOLT-4 leukemia, over 100 µM; in the experiment on PC-3 prostate, over 100 µM; in the experiment on HCT-116 colon, over 100 µM; with SK-MEL-2 melanoma it was over 100 µM; in the experiment on HOP-62 NSCLC it was over 100 µM. Moreover, the TGI in the experiment on DU-145 prostate, with CCRF-CEM leukemia and with SNB-75 CNS was over 100 µM each time.
Regarding `Cc1ccc(S(=O)(=O)NC(=O)NCC(=O)O)cc1`, the TGI in the experiment on HS 578T breast, in the experiment on MOLT-4 leukemia, in the experiment with PC-3 prostate, with HCT-116 colon, with SK-MEL-2 melanoma and with HOP-62 NSCLC was over 100 µM each time. Moreover, the TGI in the experiment with DU-145 prostate, in the experiment on CCRF-CEM leukemia and with SNB-75 CNS was over 100 µM throughout.
As to `N#C/C=C\c1ccc(-c2cc(C(F)(F)F)cc(C(F)(F)F)c2)o1`, the TGI with HS 578T breast was 54.8 µM; in the experiment on MOLT-4 leukemia it was over 100 µM; in the experiment on PC-3 prostate it was over 100 µM; in the experiment on HCT-116 colon, over 100 µM; in the experiment with SK-MEL-2 melanoma it was 41 µM; in the experiment on HOP-62 NSCLC it was 47.3 µM. In addition, the TGI in the experiment with DU-145 prostate was over 100 µM; with CCRF-CEM leukemia, over 100 µM; in the experiment on SNB-75 CNS, 39.8 µM.
In the case of `CCCC(=O)Oc1cc(OC(=O)CCC)c2c(C)cc(=O)oc2c1`, the TGI in the experiment on HS 578T breast, in the experiment with MOLT-4 leukemia, with PC-3 prostate, with HCT-116 colon, with SK-MEL-2 melanoma and in the experiment on HOP-62 NSCLC was over 100 µM in each case. In addition, the TGI in the experiment on DU-145 prostate, in the experiment with CCRF-CEM leukemia and in the experiment on SNB-75 CNS was over 100 µM in each case.
